Patent US20100092526A1, “NANOEMULSION THERAPEUTIC COMPOSITIONS AND METHODS OF USING THE SAME” (NanoBio Corporation, priority 2008, published 2010)
≈ marks a conversion by molar mass, not a printed value. Where two headings read alike, the source gives them in different places.

How the values were obtained:
[1] = tested on: Stenotrophomonas maltophilia; assay: MIC/MBC of nanoemulsions against gram-negative isolates (CLSI, alamar blue); format: cell-based; conditions: Stenotrophomonas maltophilia (n = 5); for MIC50: nanoemulsions in the presence of 5 mM EDTA
[2] = tested on: Stenotrophomonas maltophilia; assay: MIC/MBC against CF isolates (CLSI, alamar blue); conditions: Stenotrophomonas maltophilia
Proteus mirabilis = assay: MIC/MBC of nanoemulsions against gram-negative isolates (CLSI, alamar blue); format: cell-based; conditions: Proteus mirabilis (n = 5); for MIC50 / MIC Range: nanoemulsions in the presence of 5 mM EDTA; for MIC Range: in µg/mL
Escherichia coli = assay: as above; format: cell-based; conditions: Escherichia coli (n = 5); for MIC50: nanoemulsions in the presence of 5 mM EDTA
Acinetobacter baumannii [3] = assay: as above; format: cell-based; conditions: Acinetobacter baumannii (n = 5); for MIC50: nanoemulsions in the presence of 5 mM EDTA
Acinetobacter baumannii [4] = assay: MIC/MBC against clinical isolates (CLSI, alamar blue); conditions: Acinetobacter baumannii
Pseudomonas aeruginosa [5] = assay: MIC/MBC against CF isolates (CLSI, alamar blue); conditions: Pseudomonas aeruginosa
Pseudomonas aeruginosa [6] = assay: MIC/MBC of nanoemulsions against gram-negative isolates (CLSI, alamar blue); format: cell-based; conditions: Pseudomonas aeruginosa (n = 5)
Klebsiella pneumoniae = assay: as above; format: cell-based; conditions: Klebsiella pneumoniae (n = 5)
Burkholderia cepacia = assay: as above; format: cell-based; conditions: Burkholderia cepacia (n = 5); for MIC50 / MIC Range: nanoemulsions in the presence of 5 mM EDTA; for MIC Range: in µg/mL
Burkholderia cenocepacia = assay: MIC/MBC against CF isolates (CLSI, alamar blue); conditions: Burkholderia cenocepacia
Haemophilus influenzae = assay: Susceptibility (MIC/MBC) of H. influenzae clinical isolates; format: cell-based
[7] = CF Stenotrophomonas isolate NB41
[8] = CF Stenotrophomonas isolate NB42
[9] = CF Stenotrophomonas isolate NB43
[10] = CF Stenotrophomonas isolate NB44
[11] = CF Stenotrophomonas isolate NB45
[12] = CF Stenotrophomonas isolate Steno 1
[13] = CF Stenotrophomonas isolate Steno 2
[14] = CF Stenotrophomonas isolate Steno 3
[15] = CF Stenotrophomonas isolate Steno 4
[16] = CF Stenotrophomonas isolate Steno 6
[17] = CF Stenotrophomonas isolate Steno 8
[18] = nanoemulsions in the presence of 5 mM EDTA

CC(C)(O/N=C(\C(=O)N[C@@H]1C(=O)N2C(C(=O)[O-])=C(C[n+]3ccccc3)CS[C@H]12)c1csc(N)n1)C(=O)O [Ceftazidime]
% resistant [1]: 40.0/40.0%
% susceptible [1]: 40.0/40.0%
MIC50 [1]: 16 µg/mL
MIC50 [2]: > 32 µg/mL
MIC90 [2]: > 32 µg/mL
MBC [2, 7]: > 32 µg/mL
MIC [2, 7]: > 32 µg/mL
MBC [2, 8]: > 32 µg/mL
MIC [2, 8]: 8 µg/mL (≈ 14.6 µM)
MBC [2, 9]: > 32 µg/mL
MIC [2, 9]: > 32 µg/mL
MBC [2, 10]: > 32 µg/mL
MIC [2, 10]: > 32 µg/mL
MBC [2, 11]: > 32 µg/mL
MIC [2, 11]: > 32 µg/mL
MBC [2, 12]: > 32 µg/mL
MIC [2, 12]: > 32 µg/mL
MBC [2, 13]: > 32 µg/mL
MIC [2, 13]: > 32 µg/mL
MBC [2, 14]: > 32 µg/mL
MIC [2, 14]: > 32 µg/mL
MBC [2, 15]: 16 µg/mL (≈ 29.3 µM)
MIC [2, 15]: 2 µg/mL (≈ 3.66 µM)
MBC [2, 16]: > 32 µg/mL
MIC [2, 16]: 32 µg/mL (≈ 58.5 µM)
MBC [2, 17]: > 32 µg/mL
MIC [2, 17]: 16 µg/mL (≈ 29.3 µM)
MBC ([2]; read-out: MBC 50, 11 CF Stenotrophomonas isolates): > 32 µg/mL
% resistant (Proteus mirabilis): 0.0%
% susceptible (Proteus mirabilis): 100.0%
MIC50 (Proteus mirabilis): ≤ 1 µg/mL
MIC Range (Proteus mirabilis): <=1
% resistant (Escherichia coli): 20.0%
% susceptible (Escherichia coli): 80.0%
MIC50 (Escherichia coli): ≤ 1 µg/mL
% resistant (Acinetobacter baumannii [3]): 20.0%
% susceptible (Acinetobacter baumannii [3]): 80.0%
MIC50 (Acinetobacter baumannii [3]): 4 µg/mL
MIC50 (Acinetobacter baumannii [4]): > 32 µg/mL
MIC90 (Acinetobacter baumannii [4]): > 32 µg/mL
MBC (Acinetobacter baumannii [4]; Acinetobacter isolate NB31): > 32 µg/mL
MIC (Acinetobacter baumannii [4]; Acinetobacter isolate NB31): > 32 µg/mL
MBC (Acinetobacter baumannii [4]; Acinetobacter isolate NB32): > 32 µg/mL
MIC (Acinetobacter baumannii [4]; Acinetobacter isolate NB32): > 32 µg/mL
MBC (Acinetobacter baumannii [4]; Acinetobacter isolate NB33): > 32 µg/mL
MIC (Acinetobacter baumannii [4]; Acinetobacter isolate NB33): > 32 µg/mL
MBC (Acinetobacter baumannii [4]; Acinetobacter isolate NB34): 32 µg/mL (≈ 58.5 µM)
MIC (Acinetobacter baumannii [4]; Acinetobacter isolate NB34): 32 µg/mL (≈ 58.5 µM)
MBC (Acinetobacter baumannii [4]; Acinetobacter isolate NB35): > 32 µg/mL
MIC (Acinetobacter baumannii [4]; Acinetobacter isolate NB35): > 32 µg/mL
MBC (Acinetobacter baumannii [4]; Acinetobacter isolate NB36): 4 µg/mL (≈ 7.32 µM)
MIC (Acinetobacter baumannii [4]; Acinetobacter isolate NB36): 2 µg/mL (≈ 3.66 µM)
MBC (Acinetobacter baumannii [4]; Acinetobacter isolate NB37): 32 µg/mL (≈ 58.5 µM)
MIC (Acinetobacter baumannii [4]; Acinetobacter isolate NB37): 32 µg/mL (≈ 58.5 µM)
MBC (Acinetobacter baumannii [4]; Acinetobacter isolate NB38): > 32 µg/mL
MIC (Acinetobacter baumannii [4]; Acinetobacter isolate NB38): > 32 µg/mL
MBC (Acinetobacter baumannii [4]; Acinetobacter isolate NB39): > 32 µg/mL
MIC (Acinetobacter baumannii [4]; Acinetobacter isolate NB39): 32 µg/mL (≈ 58.5 µM)
MBC (Acinetobacter baumannii [4]; Acinetobacter isolate NB40): > 32 µg/mL
MIC (Acinetobacter baumannii [4]; Acinetobacter isolate NB40): > 32 µg/mL
MBC (Acinetobacter baumannii [4]; read-out: MBC 50, 10 Acinetobacter isolates): > 32 µg/mL
MBC (Pseudomonas aeruginosa [5]; CF Pseudomonas isolate NB12): 512 µg/mL (≈ 937 µM)
MIC (Pseudomonas aeruginosa [5]; CF Pseudomonas isolate NB12): 256 µg/mL (≈ 468 µM)
MBC (Pseudomonas aeruginosa [5]; CF Pseudomonas isolate NB13): 512 µg/mL (≈ 937 µM)
MIC (Pseudomonas aeruginosa [5]; CF Pseudomonas isolate NB13): 512 µg/mL (≈ 937 µM)
MBC (Pseudomonas aeruginosa [5]; CF Pseudomonas isolate NB14): > 1020 µg/mL
MIC (Pseudomonas aeruginosa [5]; CF Pseudomonas isolate NB14): 1020 µg/mL (≈ 1870 µM)
MBC (Pseudomonas aeruginosa [5]; CF Pseudomonas isolate NB15): 512 µg/mL (≈ 937 µM)
MIC (Pseudomonas aeruginosa [5]; CF Pseudomonas isolate NB15): 256 µg/mL (≈ 468 µM)
MBC (Pseudomonas aeruginosa [5]; CF Pseudomonas isolate NB16): > 1020 µg/mL
MIC (Pseudomonas aeruginosa [5]; CF Pseudomonas isolate NB16): 256 µg/mL (≈ 468 µM)
MBC (Pseudomonas aeruginosa [5]; CF Pseudomonas isolate NB19): 1020 µg/mL (≈ 1870 µM)
MIC (Pseudomonas aeruginosa [5]; CF Pseudomonas isolate NB19): 512 µg/mL (≈ 937 µM)
MBC (Pseudomonas aeruginosa [5]; CF Pseudomonas isolate NB20): 512 µg/mL (≈ 937 µM)
MIC (Pseudomonas aeruginosa [5]; CF Pseudomonas isolate NB20): 256 µg/mL (≈ 468 µM)
% resistant (Pseudomonas aeruginosa [6]): 0.0%
% susceptible (Pseudomonas aeruginosa [6]): 100.0%
MIC50 (Pseudomonas aeruginosa [6]; [18]): 2 µg/mL
MIC Range (Pseudomonas aeruginosa [6]; nanoemulsions in the presence of 5 mM EDTA, in µg/mL): 2-4
% resistant (Klebsiella pneumoniae): 20.0%
% susceptible (Klebsiella pneumoniae): 80.0%
MIC50 (Klebsiella pneumoniae; [18]): ≤ 1 µg/mL
% resistant (Burkholderia cepacia): 0.0%
% susceptible (Burkholderia cepacia): 100.0%
MIC50 (Burkholderia cepacia): 2 µg/mL
MIC Range (Burkholderia cepacia): 2-4
MBC (Burkholderia cenocepacia; CF Burkholderia isolate NB21): > 32 µg/mL
MIC (Burkholderia cenocepacia; CF Burkholderia isolate NB21): 8 µg/mL (≈ 14.6 µM)
MBC (Burkholderia cenocepacia; CF Burkholderia isolate NB22): > 32 µg/mL
MIC (Burkholderia cenocepacia; CF Burkholderia isolate NB22): 8 µg/mL (≈ 14.6 µM)
MBC (Burkholderia cenocepacia; CF Burkholderia isolate NB23): > 32 µg/mL
MIC (Burkholderia cenocepacia; CF Burkholderia isolate NB23): > 32 µg/mL
MBC (Burkholderia cenocepacia; CF Burkholderia isolate NB24): 32 µg/mL (≈ 58.5 µM)
MIC (Burkholderia cenocepacia; CF Burkholderia isolate NB24): 4 µg/mL (≈ 7.32 µM)
MBC (Burkholderia cenocepacia; CF Burkholderia isolate NB25): 32 µg/mL (≈ 58.5 µM)
MIC (Burkholderia cenocepacia; CF Burkholderia isolate NB25): 16 µg/mL (≈ 29.3 µM)
MBC (Burkholderia cenocepacia; CF Burkholderia isolate NB26): 32 µg/mL (≈ 58.5 µM)
MIC (Burkholderia cenocepacia; CF Burkholderia isolate NB26): 16 µg/mL (≈ 29.3 µM)
MBC (Burkholderia cenocepacia; CF Burkholderia isolate NB27): 16 µg/mL (≈ 29.3 µM)
MIC (Burkholderia cenocepacia; CF Burkholderia isolate NB27): 8 µg/mL (≈ 14.6 µM)
MBC (Burkholderia cenocepacia; CF Burkholderia isolate NB28b): 16 µg/mL (≈ 29.3 µM)
MIC (Burkholderia cenocepacia; CF Burkholderia isolate NB28b): 16 µg/mL (≈ 29.3 µM)
MBC (Burkholderia cenocepacia; CF Burkholderia isolate NB29): > 32 µg/mL
MIC (Burkholderia cenocepacia; CF Burkholderia isolate NB29): 4 µg/mL (≈ 7.32 µM)
MBC (Burkholderia cenocepacia; CF Burkholderia isolate NB30): 2 µg/mL (≈ 3.66 µM)
MIC (Burkholderia cenocepacia; CF Burkholderia isolate NB30): 2 µg/mL (≈ 3.66 µM)

CN(C)[C@@H]1C(O)=C(C(N)=O)C(=O)[C@@]2(O)C(O)=C3C(=O)c4c(O)cccc4[C@@](C)(O)[C@H]3C[C@@H]12 [Tetracycline]
MIC50 [1]: > 8 µg/mL
% resistant (Proteus mirabilis): 100.0%
% susceptible (Proteus mirabilis): 0.0%
MIC50 (Proteus mirabilis): > 8 µg/mL
MIC Range (Proteus mirabilis): >8
% resistant (Escherichia coli): 80.0%
% susceptible (Escherichia coli): 20.0%
MIC50 (Escherichia coli): > 8 µg/mL
% resistant (Acinetobacter baumannii [3]): 20.0%
% susceptible (Acinetobacter baumannii [3]): 80.0%
MIC50 (Acinetobacter baumannii [3]): ≤ 2 µg/mL
MIC Range (Haemophilus influenzae; H. influenzae isolates of Table 6, nanoemulsion values as μg CPC/ml or μg BA/ml): 0.5 to 16 µg/mL
MIC (Haemophilus influenzae; Haemophilus influenzae, strain 30, nanoemulsion values as μg CPC/ml or μg BA/ml): 0.5 µg/mL (≈ 1.13 µM)
MIC (Haemophilus influenzae; Haemophilus influenzae, strain 32, nanoemulsion values as μg CPC/ml or μg BA/ml): 2 µg/mL (≈ 4.5 µM)
MIC (Haemophilus influenzae; Haemophilus influenzae, strain 33, nanoemulsion values as μg CPC/ml or μg BA/ml): 1 µg/mL (≈ 2.25 µM)
MIC (Haemophilus influenzae; Haemophilus influenzae, strain 34, nanoemulsion values as μg CPC/ml or μg BA/ml): 1 µg/mL (≈ 2.25 µM)
MIC (Haemophilus influenzae; Haemophilus influenzae, strain 35, nanoemulsion values as μg CPC/ml or μg BA/ml): 0.5 µg/mL (≈ 1.13 µM)
MIC (Haemophilus influenzae; Haemophilus influenzae, strain 36, nanoemulsion values as μg CPC/ml or μg BA/ml): 1 µg/mL (≈ 2.25 µM)
MIC (Haemophilus influenzae; Haemophilus influenzae, strain 37, nanoemulsion values as μg CPC/ml or μg BA/ml): 1 µg/mL (≈ 2.25 µM)
MIC (Haemophilus influenzae; Haemophilus influenzae, strain 38, nanoemulsion values as μg CPC/ml or μg BA/ml): 0.5 µg/mL (≈ 1.13 µM)
MIC (Haemophilus influenzae; Haemophilus influenzae, strain 41, nanoemulsion values as μg CPC/ml or μg BA/ml): 1 µg/mL (≈ 2.25 µM)
MIC (Haemophilus influenzae; Haemophilus influenzae, strain 42, nanoemulsion values as μg CPC/ml or μg BA/ml): 1 µg/mL (≈ 2.25 µM)
MIC (Haemophilus influenzae; Haemophilus influenzae, strain 49247, nanoemulsion values as μg CPC/ml (P4075EC, W205EC) or μg BA/ml (W205GBA2)): 16 µg/mL (≈ 36 µM)
MIC90 (Haemophilus influenzae; Haemophilus influenzae, H. influenzae isolates of Table 6, nanoemulsion values as μg CPC/ml or μg BA/ml): 2 µg/mL (≈ 4.5 µM)
% resistant (Pseudomonas aeruginosa [6]): 40.0%
% susceptible (Pseudomonas aeruginosa [6]): 0.0%
MIC50 (Pseudomonas aeruginosa [6]; [18]): 8 µg/mL
% resistant (Klebsiella pneumoniae): 0.0%
% susceptible (Klebsiella pneumoniae): 100.0%
MIC50 (Klebsiella pneumoniae; [18]): ≤ 2 µg/mL
MIC Range (Klebsiella pneumoniae; [18]): <=2-4 ^
MIC50 (Burkholderia cepacia): > 8 µg/mL
MIC Range (Burkholderia cepacia): >8
